In brackets after ≈: the same amount, converted by molar mass.
Conditions: buffer; pH 7.4; 200.0 µM
`O=C(c1ccco1)N1CCN(C(=O)c2ccccc2OCc2ccccc2)CC1` gave a solubility kinetic of over 58.6 µg/mL. Work on `Cc1noc(C)c1C(=O)Nc1ccc2ccccc2c1` yielded a solubility kinetic of 11.2 µg/mL (≈ 42.1 µM). With `CSCc1cc(N(C)c2ccccc2)nc(-c2ccccn2)n1` the solubility kinetic was 42.8 µg/mL (≈ 133 µM). For `CN(C)C(=O)c1cc(C(=O)Cc2ccccc2)c[nH]1`, the solubility kinetic was 37.7 µg/mL (≈ 147 µM). Work on `CC12CS(=O)(=O)CC1SC(=S)N2Cc1ccccc1` (configuration not stated) yielded a solubility kinetic of 44.2 µg/mL (≈ 141 µM). `CN(c1ccccc1)S(=O)(=O)c1ccc(C(=O)N2CCN(c3ccccc3Cl)CC2)cc1` showed a solubility kinetic of 6.8 µg/mL (≈ 14.5 µM). For `COc1ccc(C2(C)NC(=O)N(CC3CCCCC3)C2=O)cc1` (configuration not stated), the solubility kinetic was over 47.5 µg/mL. For `O=C(CC(=O)Nc1ccccc1)Nc1ccccc1`, the solubility kinetic was 8.4 µg/mL (≈ 33 µM). `CCOC(=O)Cn1c2ccc(C)cc2c2nc(C)sc21` showed a solubility kinetic of 38.3 µg/mL (≈ 133 µM). `C/C(=N/O)c1cccc(N2Cc3ccccc3C2)c1` gave a solubility kinetic of 22.2 µg/mL (≈ 88 µM). For `CP(=O)(Nc1ccccc1)C(Cl)(Cl)Cl` (configuration not stated), the solubility kinetic was over 40.9 µg/mL. `CC(CC(=O)Nc1nccs1)c1ccccc1` (configuration not stated) gave a solubility kinetic of 32.5 µg/mL (≈ 132 µM). Work on `O=C(Nc1cccc(NC(=O)c2ccc([N+](=O)[O-])o2)c1)c1ccco1` yielded a solubility kinetic of 4.5 µg/mL (≈ 13.2 µM). With `CCOc1cc(C(=O)N2CCCN(C)CC2)cc(OCC)c1OCC` the solubility kinetic was over 52.6 µg/mL. In the case of `O=C(NCc1ccccc1)C(=O)Nc1cccc(C(=O)O)c1`, the solubility kinetic is reported as over 44.7 µg/mL. `COc1ccc(-c2nc(C=O)cs2)cc1` showed a solubility kinetic of 26.2 µg/mL (≈ 119 µM). In the case of `COc1ccc(NC(=S)Nc2ccccc2Cl)cn1`, the solubility kinetic is reported as 38.8 µg/mL (≈ 132 µM). Work on `CCOc1ccc(NC(=O)C2CCN(S(C)(=O)=O)CC2)cc1` yielded a solubility kinetic of 20.2 µg/mL (≈ 61.9 µM). Compound `NC(=O)Cn1c(=O)n(-c2ccccc2)c(=O)c2oc3ccccc3c21` has a solubility kinetic of 2.6 µg/mL (≈ 7.75 µM). Compound `CCn1cnc2cc([N+](=O)[O-])ccc21` has a solubility kinetic of over 28.7 µg/mL. Work on `COC(=O)c1sc(-c2ccc(Cl)cc2)cc1N` yielded a solubility kinetic of under 0.6 µg/mL. In the case of `N[C@@H](Cc1ccccc1)C(=O)N1C[C@H]2C[C@@H](C1)c1cccc(=O)n1C2`, the solubility kinetic is reported as 49 µg/mL (≈ 145 µM). `CN1[C@@H](CC(=O)c2ccccc2)CCC[C@H]1C[C@H](O)c1ccccc1.Cl` gave a solubility kinetic of over 56.1 µg/mL. Compound `Cn1nc(C(C)(C)C)c([N+](=O)[O-])c1C(=O)N1CCOCC1` has a solubility kinetic of over 44.4 µg/mL. With `CC1(C)CC2CC(C)(CN2C(=S)Nc2ccccc2)C1` (configuration not stated) the solubility kinetic was 41.6 µg/mL (≈ 144 µM). `O=C(NCCCl)c1ccc(OCc2ccccc2)cc1Cl` gave a solubility kinetic of 37 µg/mL (≈ 114 µM). In the case of `CC(=O)c1ccc(OCc2ncc(C(F)(F)F)cc2Cl)cc1`, the solubility kinetic is reported as 23.6 µg/mL (≈ 71.6 µM). `COc1cc(C2NC(=O)CCC2[N+](=O)[O-])cc(OC)c1OC` (configuration not stated) showed a solubility kinetic of over 46.5 µg/mL. Work on `COc1ccc(C(=O)/C=C/NCc2ccc(F)cc2)cc1OC` yielded a solubility kinetic of over 47.3 µg/mL. `Cc1nc(N)c(Br)c(C)c1Br` showed a solubility kinetic of 6.2 µg/mL (≈ 22.1 µM). Work on `COc1ccccc1/C=C/C(=O)OCC(=O)c1cc(C)n(C)c1C` yielded a solubility kinetic of 7.9 µg/mL (≈ 24.1 µM). Work on `COc1ccc(CCOC(=O)c2ccc(NC(=O)CC#N)cc2)cc1` yielded a solubility kinetic of 4.1 µg/mL (≈ 12.1 µM). In the case of `O=C1C2C3C=CC(C3)C2C(=O)N1c1ccc2ccccc2c1` (configuration not stated), the solubility kinetic is reported as 12.3 µg/mL (≈ 42.5 µM). `COC(=O)c1ccc(-c2noc(CN(C)CC3CCCCO3)n2)cc1` (configuration not stated) gave a solubility kinetic of over 51.8 µg/mL. `CC(=O)c1ccc(NC(=O)CN2CCCCCC2)cc1` gave a solubility kinetic of over 41.2 µg/mL. With `CC(=O)C(Cc1ccccc1)NC(=O)COC(=O)c1cccc(C)c1[N+](=O)[O-]` (configuration not stated) the solubility kinetic was over 57.7 µg/mL. Work on `COc1ccccc1C(=O)C1CCCN(Cc2ccc3c(c2)OCCO3)C1` (configuration not stated) yielded a solubility kinetic of 36.7 µg/mL (≈ 99.9 µM). With `Fc1ccccc1N1CCN(c2ncnc3nc[nH]c23)CC1` the solubility kinetic was 1.3 µg/mL (≈ 4.36 µM). With `COc1ccc2oc(C(=O)NCc3ccco3)c(C)c2c1` the solubility kinetic was 31.6 µg/mL (≈ 111 µM). Work on `O=C(CCC(=O)N1CCCCCC1)Nc1ccc([N+](=O)[O-])cc1` yielded a solubility kinetic of 9.2 µg/mL (≈ 28.8 µM). `OCCN1CCN(Cc2ccc3ccccc3c2)CC1` showed a solubility kinetic of 26.9 µg/mL (≈ 99.5 µM). `COc1ccc(Cl)cc1NS(=O)(=O)c1cccc(C(=O)NC2CC2)c1` showed a solubility kinetic of over 57.1 µg/mL. In the case of `CC(=O)c1cn(C(=O)c2ccc(Cl)cc2)c2ccccc12`, the solubility kinetic is reported as 3.6 µg/mL (≈ 12.1 µM). Work on `Cc1nn(-c2ccccc2)c(N)c1N=O` yielded a solubility kinetic of over 30.3 µg/mL. `CN(C)C(=O)COc1ncnc2scc(-c3ccc(F)cc3)c12` showed a solubility kinetic of 45.8 µg/mL (≈ 138 µM). `COCc1cc(C)nc(SCc2ccc(Cl)cc2)c1C#N` showed a solubility kinetic of 0.8 µg/mL (≈ 2.51 µM). Work on `COC(=O)Nc1ccc(S(=O)(=O)N2CCC(C(=O)NCc3ccc4c(c3)OCO4)CC2)cc1` yielded a solubility kinetic of 4 µg/mL (≈ 8.41 µM).

From PubChem BioAssay AID1996
